Laboratory results published in patent US6844349B2, “Salt forms of E-2-methoxy-N-(3-{4-[3 methyl-4-(6-methyl-pyridin-3-yloxy)-phenylamino]-quinazolin-6-yl}-allyl)-acetamide and method of production” (Pfizer Inc, priority 2001, dated 2005).

Legend:
[1] = hygroscopic stability of the complexes; format: physicochemical; conditions: solid complex; weight changes of the active ingredient during manufacture of capsules or tablets
[2] = crystallinity of the complexes; format: physicochemical; conditions: solid complex; i.e., substantially free of amorphous material

hygroscopic stability [1] | crystallinity [2] | Structure (SMILES)
substantially hygroscopically stable | high crystallinity | COCC(=O)NC/C=C/c1ccc2ncnc(Nc3ccc(Oc4ccc(C)nc4)c(C)c3)c2c1.COCC(=O)NC/C=C/c1ccc2ncnc(Nc3ccc(Oc4ccc(C)nc4)c(C)c3)c2c1.O=C(O)CCC(=O)O.O=C(O)CCC(=O)O.O=C(O)CCC(=O)O [sesquisuccinate, Sesquisuccinate Complex of E-2-Methoxy-N-(3-{4-[3-methyl-4-(6-methyl-pyridin-3-yloxy)-phenylamino]-quinazolin-6-yl}-allyl)-acetamide]
substantially hygroscopically stable | high crystallinity | COCC(=O)NC/C=C/c1ccc2ncnc(Nc3ccc(Oc4ccc(C)nc4)c(C)c3)c2c1.O=C(O)CC(=O)O.O=C(O)CC(=O)O [di-malonate, Di-malonate Complex of E-2-Methoxy-N-(3-{4-[3-methyl-4-(6-methyl-pyridin-3-yloxy)-phenylamino]-quinazolin-6-yl}-allyl)-acetamide]
